Laboratory results from publication PMC12067442 (Journal of Medicinal Chemistry, 2025).
“And” between values parts separate entries of the source, which are not always exact repeats. Identical values can stand only once.

Legend:
[1] = biological target: T1, serotonine (5-HT) transporter (SERT, SLC6A4) (Homo sapiens, UniProt P31645); assay: radioligand displacement assay on SERT (Eurofins Cerep SA); assay type: binding; settings: for inhibition at 0.1 µM: read-out: % Inhibition @ 100 nM on SERT; for inhibition at 10 µM: read-out: % Inhibition @ 10 µM on SERT
T1 construct: purchased Eurofins Cerep SA
T1 sequence (P31645 whole entry): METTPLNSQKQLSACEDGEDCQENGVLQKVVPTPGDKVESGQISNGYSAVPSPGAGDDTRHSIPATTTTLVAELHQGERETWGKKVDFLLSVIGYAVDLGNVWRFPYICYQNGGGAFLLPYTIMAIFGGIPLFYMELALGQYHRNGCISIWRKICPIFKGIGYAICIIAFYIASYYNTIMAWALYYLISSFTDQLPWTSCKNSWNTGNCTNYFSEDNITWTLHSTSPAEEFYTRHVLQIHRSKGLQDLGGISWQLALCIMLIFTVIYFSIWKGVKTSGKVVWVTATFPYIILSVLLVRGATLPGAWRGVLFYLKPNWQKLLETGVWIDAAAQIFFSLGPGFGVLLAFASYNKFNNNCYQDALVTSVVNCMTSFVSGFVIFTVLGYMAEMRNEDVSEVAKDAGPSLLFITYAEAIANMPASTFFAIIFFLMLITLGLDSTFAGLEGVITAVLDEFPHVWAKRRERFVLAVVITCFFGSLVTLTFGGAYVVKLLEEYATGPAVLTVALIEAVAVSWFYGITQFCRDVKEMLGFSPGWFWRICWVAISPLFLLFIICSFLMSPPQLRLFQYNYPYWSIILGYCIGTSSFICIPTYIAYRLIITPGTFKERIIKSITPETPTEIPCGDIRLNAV

[2] = biological target: T2, norepinephrine transporter (NET, SLC6A2) (Homo sapiens, UniProt P23975); assay: radioligand displacement assay on NET (Eurofins Cerep SA); assay type: binding; settings: for inhibition at 0.01 µM: read-out: % Inhibition @ 10 nM on NET; for inhibition at 0.1 µM: read-out: % Inhibition @ 100 nM on NET; for inhibition at 10 µM: read-out: % Inhibition @ 10 µM on NET
T2 construct: purchased Eurofins Cerep SA
T2 sequence (P23975 whole entry): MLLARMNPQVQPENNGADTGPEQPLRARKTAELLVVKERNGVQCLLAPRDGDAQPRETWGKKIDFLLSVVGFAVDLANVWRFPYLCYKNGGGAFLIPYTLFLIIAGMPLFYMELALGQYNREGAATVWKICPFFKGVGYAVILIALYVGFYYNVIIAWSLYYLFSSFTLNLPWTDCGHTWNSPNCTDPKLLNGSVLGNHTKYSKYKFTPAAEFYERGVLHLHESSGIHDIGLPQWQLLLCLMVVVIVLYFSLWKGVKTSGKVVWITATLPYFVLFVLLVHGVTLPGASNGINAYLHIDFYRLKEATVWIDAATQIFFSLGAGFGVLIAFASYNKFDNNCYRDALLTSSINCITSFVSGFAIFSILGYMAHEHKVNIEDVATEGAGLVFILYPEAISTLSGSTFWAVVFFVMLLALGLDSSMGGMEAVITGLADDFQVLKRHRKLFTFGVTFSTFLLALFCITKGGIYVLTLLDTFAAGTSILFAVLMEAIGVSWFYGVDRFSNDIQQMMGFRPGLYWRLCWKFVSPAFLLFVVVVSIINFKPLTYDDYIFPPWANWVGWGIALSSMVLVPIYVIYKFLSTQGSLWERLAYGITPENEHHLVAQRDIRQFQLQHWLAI

[3] = biological target: T3, dopamine transporter (DAT, SLC6A3) (Homo sapiens, UniProt Q01959); assay: radioligand displacement assay on DAT (Eurofins Cerep SA); assay type: binding; settings: for inhibition at 0.1 µM: read-out: % Inhibition @ 100 nM on DAT; for inhibition at 10 µM: read-out: % Inhibition @ 10 µM on DAT
T3 construct: purchased Eurofins Cerep SA
T3 sequence (Q01959 whole entry): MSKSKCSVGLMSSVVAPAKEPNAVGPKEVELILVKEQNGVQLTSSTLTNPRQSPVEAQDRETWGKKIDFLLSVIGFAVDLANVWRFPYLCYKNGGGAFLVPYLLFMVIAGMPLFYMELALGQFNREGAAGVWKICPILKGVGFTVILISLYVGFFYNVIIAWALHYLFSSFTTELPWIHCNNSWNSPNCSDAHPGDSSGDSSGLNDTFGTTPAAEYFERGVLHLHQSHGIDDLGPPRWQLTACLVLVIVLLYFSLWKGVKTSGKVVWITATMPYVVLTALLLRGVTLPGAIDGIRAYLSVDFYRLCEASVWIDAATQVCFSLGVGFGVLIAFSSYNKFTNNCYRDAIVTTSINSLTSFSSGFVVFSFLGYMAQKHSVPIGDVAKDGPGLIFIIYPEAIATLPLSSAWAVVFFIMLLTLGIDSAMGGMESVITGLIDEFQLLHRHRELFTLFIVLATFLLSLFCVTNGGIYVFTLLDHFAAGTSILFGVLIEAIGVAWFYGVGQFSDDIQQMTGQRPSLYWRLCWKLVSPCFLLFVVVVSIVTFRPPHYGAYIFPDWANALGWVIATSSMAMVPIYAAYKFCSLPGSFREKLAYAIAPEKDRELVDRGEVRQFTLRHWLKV

Muscarinic M1 = biological target: T4, Muscarinic M1 (Homo sapiens, UniProt P11229); assay: in vitro polypharmacology panel: Muscarinic M1; assay type: binding
T4 construct: purchased Eurofins Cerep SA
T4 sequence (P11229 whole entry): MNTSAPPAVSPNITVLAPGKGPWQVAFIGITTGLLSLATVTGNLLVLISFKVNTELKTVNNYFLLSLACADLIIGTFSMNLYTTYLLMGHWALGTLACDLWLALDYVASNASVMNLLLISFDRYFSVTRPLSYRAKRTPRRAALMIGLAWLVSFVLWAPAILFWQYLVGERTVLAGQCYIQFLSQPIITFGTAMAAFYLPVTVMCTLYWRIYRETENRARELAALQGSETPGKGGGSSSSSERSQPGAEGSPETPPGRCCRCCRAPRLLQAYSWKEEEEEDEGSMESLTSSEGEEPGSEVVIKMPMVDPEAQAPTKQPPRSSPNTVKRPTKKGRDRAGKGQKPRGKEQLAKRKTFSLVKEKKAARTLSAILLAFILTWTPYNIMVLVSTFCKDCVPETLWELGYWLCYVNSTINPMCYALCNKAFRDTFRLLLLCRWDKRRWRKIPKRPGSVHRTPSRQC

Serotonin 5-HT 3 = biological target: T5, Serotonin 5-HT 3 (Homo sapiens, UniProt P46098); assay: in vitro polypharmacology panel: Serotonin 5-HT 3; assay type: binding
T5 construct: Eurofins Cerep SA (France), contract assay

Dopamine D2s = biological target: T6, Dopamine D2s (Homo sapiens, UniProt P14416); assay: in vitro polypharmacology panel: Dopamine D2s; assay type: binding
T6 construct: purchased Eurofins Cerep SA
T6 sequence (P14416 1-414 isoform P14416-2): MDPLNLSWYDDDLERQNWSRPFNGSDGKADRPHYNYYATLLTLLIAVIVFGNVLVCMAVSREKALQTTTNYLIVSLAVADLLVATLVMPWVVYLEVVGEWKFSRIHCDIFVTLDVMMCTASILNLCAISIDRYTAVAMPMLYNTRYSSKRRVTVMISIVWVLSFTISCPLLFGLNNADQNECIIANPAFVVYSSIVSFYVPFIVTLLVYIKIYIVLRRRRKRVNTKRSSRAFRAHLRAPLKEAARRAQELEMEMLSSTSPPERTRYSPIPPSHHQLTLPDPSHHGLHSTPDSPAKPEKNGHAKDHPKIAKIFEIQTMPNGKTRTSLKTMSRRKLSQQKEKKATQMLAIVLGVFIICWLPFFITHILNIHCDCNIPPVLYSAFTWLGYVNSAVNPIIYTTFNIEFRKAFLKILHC

Histaminic H1 = biological target: T7, Histaminic H1 (Homo sapiens, UniProt P35367); assay: in vitro polypharmacology panel: Histaminic H1; assay type: binding
T7 construct: purchased Eurofins Cerep SA

Dopamine D3 = biological target: T8, Dopamine D3 (Homo sapiens, UniProt P35462); assay: in vitro polypharmacology panel: Dopamine D3; assay type: binding
T8 construct: purchased Eurofins Cerep SA

Histaminic H3 = biological target: T9, Histaminic H3 (Homo sapiens, UniProt Q9Y5N1); assay: in vitro polypharmacology panel: Histaminic H3; assay type: binding
T9 construct: purchased Eurofins Cerep SA

Dopamine D2L = biological target: T10, Dopamine D2L (Homo sapiens, UniProt P14416); assay: in vitro polypharmacology panel: Dopamine D2L; assay type: binding
T10 construct: purchased Eurofins Cerep SA

Dopamine D1 = biological target: T11, Dopamine D1 (Homo sapiens, UniProt P21728); assay: in vitro polypharmacology panel: Dopamine D1; assay type: binding
T11 construct: purchased Eurofins Cerep SA

σ-1R = biological target: T12, σ-1R (Homo sapiens, UniProt Q99720); assay: radioligand displacement assay on σ-1R (Eurofins Cerep SA); assay type: binding; settings: estimated from duplicate dilution series; read-out: IC50 (nM) sigma-1R
T12 construct: purchased Eurofins Cerep SA
T12 sequence (Q99720 whole entry, species assumed): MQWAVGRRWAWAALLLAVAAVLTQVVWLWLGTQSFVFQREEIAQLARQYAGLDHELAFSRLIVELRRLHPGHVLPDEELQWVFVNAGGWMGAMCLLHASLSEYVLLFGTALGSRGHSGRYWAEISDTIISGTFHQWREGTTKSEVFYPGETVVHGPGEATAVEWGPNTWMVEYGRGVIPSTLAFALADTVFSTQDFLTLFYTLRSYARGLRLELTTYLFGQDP

Cannabinoid 2 = biological target: T13, Cannabinoid 2 (Homo sapiens, UniProt P34972); assay: in vitro polypharmacology panel: Cannabinoid 2; assay type: binding
T13 construct: purchased Eurofins Cerep SA

ACHe = biological target: T14, ACHe (Homo sapiens, UniProt P22303); assay: in vitro polypharmacology panel: ACHe; assay type: binding
T14 construct: purchased Eurofins Cerep SA

Serotonin 5-HT 1B = biological target: T15, Serotonin 5-HT 1B (Homo sapiens, UniProt P28222); assay: in vitro polypharmacology panel: Serotonin 5-HT 1B; assay type: binding
T15 construct: purchased Eurofins Cerep SA

Serotonin 5-HT 2B = biological target: T16, Serotonin 5-HT 2B (Homo sapiens, UniProt P41595); assay: in vitro polypharmacology panel: Serotonin 5-HT 2B; assay type: binding
T16 construct: Eurofins Cerep SA (France), contract assay

Cannabinoid = biological target: T17, Cannabinoid (Homo sapiens, UniProt P21554); assay: in vitro polypharmacology panel: Cannabinoid; assay type: binding
T17 construct: purchased Eurofins Cerep SA

Histaminic H2 = biological target: T18, Histaminic H2 (Homo sapiens, UniProt P25021); assay: in vitro polypharmacology panel: Histaminic H2; assay type: binding
T18 construct: purchased Eurofins Cerep SA
T18 sequence (P25021 whole entry): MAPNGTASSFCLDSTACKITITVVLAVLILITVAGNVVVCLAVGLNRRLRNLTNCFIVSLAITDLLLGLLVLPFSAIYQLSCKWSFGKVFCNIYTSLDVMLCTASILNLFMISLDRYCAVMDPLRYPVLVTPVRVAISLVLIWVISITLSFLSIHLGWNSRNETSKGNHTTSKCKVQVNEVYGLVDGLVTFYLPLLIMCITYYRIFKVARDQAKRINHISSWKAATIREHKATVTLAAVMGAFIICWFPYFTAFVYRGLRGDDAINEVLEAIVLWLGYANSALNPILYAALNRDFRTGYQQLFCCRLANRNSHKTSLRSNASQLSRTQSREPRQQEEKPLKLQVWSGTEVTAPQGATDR

HEK-Gly-RA1 = biological target: T19, HEK-Gly-RA1 (Homo sapiens, UniProt P23415); assay: in vitro polypharmacology panel: HEK-Gly-RA1; assay type: binding
T19 construct: host or cells: HEK

Serotonin 5-HT 1A = biological target: T20, Serotonin 5-HT 1A (Homo sapiens, UniProt P08908); assay: in vitro polypharmacology panel: Serotonin 5-HT 1A; assay type: binding
T20 construct: purchased Eurofins Cerep SA
T20 sequence (P08908 whole entry): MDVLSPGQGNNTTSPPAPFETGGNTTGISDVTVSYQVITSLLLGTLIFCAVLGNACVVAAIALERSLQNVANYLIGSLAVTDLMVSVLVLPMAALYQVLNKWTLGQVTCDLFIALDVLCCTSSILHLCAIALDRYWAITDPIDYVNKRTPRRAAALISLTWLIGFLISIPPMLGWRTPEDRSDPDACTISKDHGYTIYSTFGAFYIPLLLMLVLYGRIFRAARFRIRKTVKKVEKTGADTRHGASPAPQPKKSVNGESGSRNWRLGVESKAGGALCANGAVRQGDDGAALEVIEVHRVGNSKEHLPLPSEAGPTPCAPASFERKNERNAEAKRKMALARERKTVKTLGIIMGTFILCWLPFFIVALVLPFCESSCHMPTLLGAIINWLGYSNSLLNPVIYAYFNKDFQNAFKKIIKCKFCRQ

mice = assay: observation of mice after acute i.p. administration; assay type: in vivo, C57Bl6/J mice; settings: 1.0 or 10 mg/kg i.p., male mice
Source text: Fresh bedding and environmental enrichment were provided weekly.

Serotonin 5-HT 2A = biological target: T21, Serotonin 5-HT 2A (Homo sapiens, UniProt P28223); assay: in vitro polypharmacology panel: Serotonin 5-HT 2A; assay type: binding
T21 construct: Eurofins Cerep SA (France), contract assay

in vivo = settings: both, C57BL/6JRJ, mouse, 5 mg/kg
hERG = biological target: T22, hERG (Homo sapiens, UniProt Q12809); assay: in vitro polypharmacology panel: hERG; assay type: binding
T22 construct: purchased Eurofins Cerep SA
T22 sequence (Q12809 whole entry): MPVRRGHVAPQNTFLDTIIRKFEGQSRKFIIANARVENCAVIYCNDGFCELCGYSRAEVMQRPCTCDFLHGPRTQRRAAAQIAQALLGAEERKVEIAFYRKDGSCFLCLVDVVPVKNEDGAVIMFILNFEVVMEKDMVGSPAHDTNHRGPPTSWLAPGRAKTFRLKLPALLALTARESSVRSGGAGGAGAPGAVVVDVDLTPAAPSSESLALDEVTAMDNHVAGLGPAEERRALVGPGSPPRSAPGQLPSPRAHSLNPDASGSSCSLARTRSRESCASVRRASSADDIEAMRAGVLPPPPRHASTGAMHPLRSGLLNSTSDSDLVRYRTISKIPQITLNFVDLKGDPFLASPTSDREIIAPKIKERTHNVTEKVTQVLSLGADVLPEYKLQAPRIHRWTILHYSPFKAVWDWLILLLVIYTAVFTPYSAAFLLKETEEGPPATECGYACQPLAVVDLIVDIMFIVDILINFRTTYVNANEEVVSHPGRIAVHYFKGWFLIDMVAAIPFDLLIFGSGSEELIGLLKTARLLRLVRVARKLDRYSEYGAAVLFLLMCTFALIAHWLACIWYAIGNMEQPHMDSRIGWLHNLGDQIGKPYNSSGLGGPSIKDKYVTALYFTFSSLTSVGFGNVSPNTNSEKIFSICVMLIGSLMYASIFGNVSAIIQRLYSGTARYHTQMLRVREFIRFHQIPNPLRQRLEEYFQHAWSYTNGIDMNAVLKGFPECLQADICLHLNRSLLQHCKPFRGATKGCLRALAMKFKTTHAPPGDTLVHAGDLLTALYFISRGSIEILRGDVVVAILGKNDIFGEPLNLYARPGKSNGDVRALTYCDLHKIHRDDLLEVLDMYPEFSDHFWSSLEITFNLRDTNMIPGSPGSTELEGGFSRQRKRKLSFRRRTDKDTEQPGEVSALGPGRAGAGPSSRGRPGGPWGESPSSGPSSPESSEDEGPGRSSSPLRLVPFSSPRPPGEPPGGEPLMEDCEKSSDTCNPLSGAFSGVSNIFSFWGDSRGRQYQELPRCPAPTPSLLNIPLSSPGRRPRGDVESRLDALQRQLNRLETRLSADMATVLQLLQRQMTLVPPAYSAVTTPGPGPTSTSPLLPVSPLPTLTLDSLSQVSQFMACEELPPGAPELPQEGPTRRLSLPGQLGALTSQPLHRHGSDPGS

Muscarinic M2 = biological target: T23, Muscarinic M2 (Homo sapiens, UniProt P08172); assay: in vitro polypharmacology panel: Muscarinic M2; assay type: binding
T23 construct: purchased Eurofins Cerep SA

[4] = tested on: dopamine (DA) uptake in PC12 cells; assay: cells; settings: Rattus norvegicus, PC-12, 2 h, read-out: IC50 (nM) - DA Uptake Inhibition
Source text: The system was operated in positive mode. […] MS peaks were quantified using a calibration curve.

Brc1cccc(CN2CCCC[C@H]3NCC[C@H]32)c1 [(R,R)-61, (3aR,8aR)-4-(3-Bromobenzyl)decahydropyrrolo[3,2-b]azepine]
inhibition at 0.1 µM [1]: 96.9% | inhibition at 0.01 µM [2]: 56.7% | inhibition at 0.1 µM [2]: 91.4% | inhibition at 0.1 µM [3]: 58%

(3aR,8aR)-4-(3,5-Dichlorobenzyl)decahydropyrrolo[3,2-b]azepine [(R,R)-63]
% Inhibition @ 100 nM on SERT [1]: 99.7% | % Inhibition @ 10 nM on NET [2]: 63.4% | % Inhibition @ 100 nM on NET [2]: 93.7% | % Inhibition @ 100 nM on DAT [3]: 89%

c1ccc(CN2CCCC[C@@H]3NCC[C@H]32)cc1 [1b, 4-Benzyldecahydropyrrolo[3,2-b]azepine]
inhibition at 10 µM [1]: 68.6% | inhibition at 10 µM [3]: 81.8%

C1CC[C@@H]2NCC[C@H]2NC1 (relative stereo) [2b, Decahydropyrrolo[3,2-b]azepine]
inhibition at 10 µM [1]: -1.9% | inhibition at 10 µM [2]: 3% | inhibition at 10 µM [3]: 13.6%

c1ccc(CN2CCC[C@H]3NCCCC[C@H]32)cc1 (relative stereo) [27a, 1-Benzyldecahydro-1H-pyrido[3,2-b]azepine]
inhibition at 10 µM [1]: 87.7% | inhibition at 10 µM [2]: 13.9% | inhibition at 10 µM [3]: 85.5%

c1ccc(CN2CC[C@H]3NCCCC[C@@H]32)cc1 (relative stereo) [17b, 1-Benzyldecahydropyrrolo[3,2-b]azepine]
inhibition at 10 µM [1]: 13.7% | inhibition at 10 µM [2]: 10.8% | inhibition at 10 µM [3]: 89%

Clc1cccc(CN2CCCC[C@H]3NCC[C@H]32)c1 [(R,R)-59, (3aR,8aR)-4-(3-chlorobenzyl)decahydropyrrolo[3,2-b]azepine]
inhibition at 0.1 µM [1]: 98% | inhibition at 0.01 µM [2]: 55.9% | inhibition at 0.1 µM [2]: 97.1% | inhibition at 0.1 µM [3]: 74.9%

C1CC[C@H]2NCC[C@H]2NC1 (relative stereo) [2a, Decahydropyrrolo[3,2-b]azepine]
inhibition at 10 µM [1]: 7.6% | inhibition at 10 µM [2]: 1.7% | inhibition at 10 µM [3]: 6.4%

(3aR,8aR)-4-(2,3-Dichlorobenzyl)decahydropyrrolo[3,2-b]azepine [(R,R)-62]
% Inhibition @ 100 nM on SERT [1]: 97.8% | % Inhibition @ 10 nM on NET [2]: 74.8% | % Inhibition @ 100 nM on NET [2]: 96.4% | % Inhibition @ 100 nM on DAT [3]: 15.4%

c1ccc(CN2CCCC[C@@H]3NCCCC[C@H]32)cc1 [44b, 6-Benzyldodecahydroazepino[3,2-b]azepine]
inhibition at 10 µM [1]: 59.4% | inhibition at 10 µM [2]: 31.5% | inhibition at 10 µM [3]: 74.9%

c1ccc(CN2CCCC[C@@H]3NCCC[C@H]32)cc1 [40b, 5-Benzyldecahydro-1H-pyrido[3,2-b]azepine]
inhibition at 10 µM [1]: 71% | inhibition at 10 µM [2]: 60% | inhibition at 10 µM [3]: 41%

c1ccc(CN2CCCC[C@@H]3NCC[C@@H]32)cc1 [(S,S)-1a, (3aS,8aS)-4-Benzyldecahydropyrrolo[3,2-b]azepine]
inhibition at 10 µM [1]: 91% | inhibition at 10 µM [3]: 94.4%

Clc1ccc(CN2CCCC[C@H]3NCC[C@H]32)cc1 [(R,R)-58, (3aR,8aR)-4-(4-Chlorobenzyl)decahydropyrrolo[3,2-b]azepine]
inhibition at 0.1 µM [1]: 78.2% | inhibition at 0.01 µM [2]: -15.2% | inhibition at 0.1 µM [2]: 6.4% | inhibition at 0.1 µM [3]: 12%

c1ccc(CN2CCCC[C@H]3NCC[C@H]32)cc1 [(R,R)-1a, (3aR,8aR)-4-Benzyldecahydropyrrolo[3,2-b]azepine]
Muscarinic M1 (5 µM) (Muscarinic M1): 78.7 | IC50 [1]: 250 ± 32 nM | inhibition at 0.1 µM [1]: 26.3% | inhibition at 10 µM [1]: 95.9% | Serotonin 5-HT 3 (5 µM) (Serotonin 5-HT 3): 5.2 | Dopamine D2s (5 µM) (Dopamine D2s): 11.7 | Histaminic H1 (5 µM) (Histaminic H1): -4.3 | Dopamine D3 (5 µM) (Dopamine D3): 6.1 | Histaminic H3 (5 µM) (Histaminic H3): 8.6 | IC50 [3]: 230 ± 12 nM | inhibition at 0.1 µM [3]: 29.8% | inhibition at 10 µM [3]: 97.2% | Dopamine D2L (5 µM) (Dopamine D2L): -0.3 | Dopamine D1 (5 µM) (Dopamine D1): 3.5 | IC50 (σ-1R): ~110 nM and 110 nM | Cannabinoid 2 (5 µM) (Cannabinoid 2): 11.9 | ACHe (5 µM) (ACHe): 3.8 | Serotonin 5-HT 1B (5 µM) (Serotonin 5-HT 1B): -19.8 | Serotonin 5-HT 2B (5 µM) (Serotonin 5-HT 2B): 29.7 | Cannabinoid (5 µM) (Cannabinoid): -13.4 | Histaminic H2 (Histaminic H2): -2 | HEK-Gly-RA1 (5 µM) (HEK-Gly-RA1): 4 | Serotonin 5-HT 1A (5 µM) (Serotonin 5-HT 1A): 18.9 | phenotype upon acute treatment (mice; already after 40 min): pronounced sedative or lethargic phenotype | signs of acute toxicity (piloerection, hunched posture, convulsions, gastrointestinal distress) (mice): no signs of acute toxicity | Serotonin 5-HT 2A (5 µM) (Serotonin 5-HT 2A): -0.9 | AUC (in vivo; iv): 799 ng·h/mL | AUC (in vivo; po): 36.6 ng·h/mL | Tmax (in vivo; po): 15 min | hERG (5 µM) (hERG): 12.2 | Muscarinic M2 (5 µM) (Muscarinic M2): 28.5

c1ccc(CN2CCCC[C@H]3NCCC[C@H]32)cc1 [40a, 5-Benzyldecahydro-1H-pyrido[3,2-b]azepine]
inhibition at 10 µM [1]: 91% | inhibition at 10 µM [2]: 88.7% | inhibition at 10 µM [3]: 94.4%

c1ccc(CN2CC[C@H]3NCCCC[C@H]32)cc1 (relative stereo) [17a, 1-Benzyldecahydropyrrolo[3,2-b]azepine]
inhibition at 10 µM [1]: 21.4% | inhibition at 10 µM [2]: 21.7% | inhibition at 10 µM [3]: 78.3%

Clc1ccccc1CN1CCCC[C@H]2NCC[C@H]21 [(R,R)-60, (3aR,8aR)-4-(2-Chlorobenzyl)decahydropyrrolo[3,2-b]azepine]
inhibition at 0.1 µM [1]: 69.1% | inhibition at 0.01 µM [2]: 24% | inhibition at 0.1 µM [2]: 83.4% | inhibition at 0.1 µM [3]: 37.5%

COc1ccc(C(CN(C)C)C2(O)CCCCC2)cc1 (stereo not shown) [Venla, venlafaxine]
IC50 [4]: 1340 ± 128 nM

Clc1ccc2c(c1)C(N1CCNCC1)=Nc1ccccc1O2 [Amox, amoxapine]
IC50 [4]: 11 ± 2.3 nM

C1CCC2NCCCCC2NC1 (stereo not shown) [4b, Dodecahydroazepino[3,2-b]azepine]
inhibition at 10 µM [1]: -1% | inhibition at 10 µM [2]: -7.1% | inhibition at 10 µM [3]: -0.5%

c1ccc(CN2CCC[C@H]3NCCCC[C@@H]32)cc1 (relative stereo) [27b, 1-Benzyldecahydro-1H-pyrido[3,2-b]azepine]
inhibition at 10 µM [1]: 6.9% | inhibition at 10 µM [2]: -5.1% | inhibition at 10 µM [3]: 19.4%

C1CC[C@@H]2NCCC[C@H]2NC1 (relative stereo) [3b]
inhibition at 10 µM [1]: 11.8% | inhibition at 10 µM [2]: 8.8% | inhibition at 10 µM [3]: -5.2%
